Cc1ccc(CO)cc1
solubility (mole fraction)
Conditions | 278.15 K | 283.15 K | 288.15 K | 293.15 K | 298.15 K | 303.15 K | 308.15 K | 313.15 K
in 1,2-dichloroethane | 0.166 | 0.214 | 0.28 | 0.343 | 0.418 | 0.506 | 0.585 | 0.685
in acetone | 0.226 | 0.272 | 0.321 | 0.384 | 0.431 | 0.497 | 0.568 | 0.642
in acetonitrile | 0.162 | 0.214 | 0.287 | 0.361 | 0.454 | 0.548 | 0.638 | 0.735
in dichloromethane | 0.4 | 0.429 | 0.466 | 0.502 | 0.537 | 0.588 | 0.646 | 0.729
in ethanol | 0.236 | 0.276 | 0.327 | 0.379 | 0.44 | 0.508 | 0.581 | 0.662
in ethyl acetate | 0.215 | 0.259 | 0.308 | 0.369 | 0.433 | 0.511 | 0.587 | 0.671
in ethyl formate | 0.152 | 0.191 | 0.242 | 0.303 | 0.372 | 0.449 | 0.537 | 0.62
in isobutanol | 0.231 | 0.275 | 0.321 | 0.373 | 0.446 | 0.513 | 0.594 | 0.667
in isopropanol | 0.248 | 0.283 | 0.33 | 0.386 | 0.448 | 0.527 | 0.597 | 0.674
in n-butanol | 0.252 | 0.287 | 0.334 | 0.385 | 0.45 | 0.51 | 0.584 | 0.698
in n-propanol | 0.253 | 0.293 | 0.34 | 0.398 | 0.454 | 0.518 | 0.595 | 0.674
